This assay concerns pre-adipocytes 3T3-L1. Put plainly: Differentiation of 3T3-L1 pre-adipocytes into adipocytes, lipid content by Oil Red colouring. Type of assay: cell-based. The note with it: Mus musculus, 3T3-L1, retinoic acid 10 μM. As for the experimental part:
The study on the effect of this extract on a line of pre-adipocytes ET3-L1 induced as adipocytes is carried out according to a protocol which is known and which is in particular described in the document which appeared in Annu. Rev. Biochem., 1995, 64: 345-373, entitled “Transcriptional regulation of gene expression during adipocyte differentiation”, the authors of which were MacDougald O A and Lane M D.
This protocol is set out briefly below. The pre-adipocyte cells of the line e=3T3-L1 were kept in culture in a Dulbelcco modified Eagle medium (DMEM) containing 2 mM of glutamine, 4.5 g/l of glucose, 0.11 g/l of sodium pyruvate, 10% of calf serum (SVD) and antibiotics (50 U penicillin and 50 μg of streptomycin per ml of medium). Their differentiation as adipocytes was brought about in the following manner: firstly, the pre-adipocyte cells were cultivated with confluence for two days. At the time which will be referred to below as D0, the culture medium was replaced by a differentiation inducing medium (DIM) composed of DMEM containing 10% foetal calf serum (FCS) with the addition of 0.25 mM of isobutyl methyl xanthine (IBMX), 0.25 μM of dexamethasone and 1.74 μM of insulin. After two days of incubation, and therefore at time D2, the induction medium was delicately withdrawn and replaced by a new culture medium containing 10% of FCS and 0.174 μM of insulin. Next the culture medium was renewed every two days.
After seven days of culture, the lipid content of the pre-adipocyte cells was assessed by colouring with Oil Red. More precisely, the pre-adipocyte cells were fixed to 3.7% formaldehyde and then incubated for ten minutes with a Oil Red colorant solution (0.5% in an isopropanol/water mixture). After 10 minutes, the cellular carpet was rinsed with water and the pre-adipocyte cells were lysed with pure isopropanol. The optical density (OD) of the medium was measured at 540 nm.
The extract of the brown alga Halopteris scoparia was tested on 3T3-L1 cells during the induction phase by means of the DIM, which therefore commenced at day D0.
In the first experimental series, this extract was added from the very start of the differentiation (at time D0) and kept present in the medium until the cells were fixed (at time D7), by renewal every two days (that is to say at time D2 and D4). The extract was tested at the following three concentrations: 0.4%, 1% and 2.5%. In the same way, use was made of a sample of 10 μM retinoic acid, which is known for inhibiting the differentiation of pre-adipocytes into adipocytes, as is in particular described in the article which appeared in Differentiation, 1990, 45:119-127, entitled “The molecular basis for inhibition of adipose conversion of 3T3-L1 cells by retinoic acid”, the authors of which were Stone R L and Berlnohr D A. […]

Read-outs that look alike come from different tables or passages of the source.

As to `CC1=C(/C=C/C(C)=C/C=C/C(C)=C/C(=O)O)C(C)(C)CCC1` [Retinoic Acid, retinoic acid], the inhibition at 10 µM reads like this: (first experimental series, five manipulations, read-out: % inhibition of the differentiation) 82 ± 21%; (presence from D0 to D2, read-out: % inhibition of differentiation) 40 ± 5%; (presence from D0 to D7, second series, read-out: % inhibition of differentiation) 51 ± 3%; (presence from D2 to D7, read-out: % inhibition of differentiation) 3 ± 2%.

One may read the inhibition as how much of the control response was suppressed.

These data come from patent US20060134131A1, “Cosmetic or pharmaceutical composition comprising a genus halopteris brown alga extract” (priority 2002, published 2006).
